Columns and labels:
p-CHK1 (Ser345) = experiment: AlphaLISA SureFire Ultra p-CHK1 (Ser345) cellular assay in HT29 cells; format: cell-based; conditions: Homo sapiens, HT-29, 16 h at 37° C.
Protocol: Example B: AlphaLisa Cellular Assay
Compound activity in cells was measured using an AlphaLISA® SureFire® Ultra™ p-CHK1 (Ser345) assay (Perkin Elmer, catalog no. ALSU-PCHK1-A10K). HT29 cells were cultured in McCoy 5A medium with 10% FBS and 1% penicillin-streptomycin and seeded to 96-well plates (Corning, catalog no. 3599). Compounds were serially diluted in DMSO over a 10-point dose range with 3-fold dilution and to each well containing cells was added compound solution. Plates were centrifuged at 1000 rpm for 30 seconds. Plates were incubated at 37° C. for 16 h. Supernatant was removed by flicking the plate against a paper towel. Wells were washed once with PBS solution. To each well was added freshly prepared lysis buffer and plates were agitated on a plate shaker at 400 rpm for 30 min. The 96-well cell plates were centrifuged at 1500 rpm for 1 minute. From each well was transferred 10 μL of the lysates to a 384-well Optiplate™ (Perkin Elmer, catalog no. 6007290). To each well was added Acceptor Mix (5 μL) and the plates were sealed and wrapped in foil. Plates were agitated on a plate shaker for 2 minutes, then incubated at room temperature for 1 h. To each well was added Donor Mix (5 μL) and the plates were sealed and wrapped in foil. Plates were agitated on a plate shaker for 2 minutes, then incubated at room temperature for 1 h. AlphaLisa signal was read on an EnVision multimode plate reader (Perkin Elmer). Data were fit to dose-response curves using XLfit (IDBS, Surrey, UK) or Prism (GraphPad Software, La Jolla, Calif., US) to calculate IC50 values for each compound tested.

[1] = molecular target: T1, Full-length human Chk1 protein (Homo sapiens, UniProt O14757); experiment: Kinase HTRF biochemical assay (HTRF KinEASE), Chk1 enzyme activity; conditions: full-length human Chk1, ATP 1 mM, 60 minutes at room temperature
T1 construct: purchased Carna Biosciences, Inc. 02-117
T1 sequence (O14757 1-476): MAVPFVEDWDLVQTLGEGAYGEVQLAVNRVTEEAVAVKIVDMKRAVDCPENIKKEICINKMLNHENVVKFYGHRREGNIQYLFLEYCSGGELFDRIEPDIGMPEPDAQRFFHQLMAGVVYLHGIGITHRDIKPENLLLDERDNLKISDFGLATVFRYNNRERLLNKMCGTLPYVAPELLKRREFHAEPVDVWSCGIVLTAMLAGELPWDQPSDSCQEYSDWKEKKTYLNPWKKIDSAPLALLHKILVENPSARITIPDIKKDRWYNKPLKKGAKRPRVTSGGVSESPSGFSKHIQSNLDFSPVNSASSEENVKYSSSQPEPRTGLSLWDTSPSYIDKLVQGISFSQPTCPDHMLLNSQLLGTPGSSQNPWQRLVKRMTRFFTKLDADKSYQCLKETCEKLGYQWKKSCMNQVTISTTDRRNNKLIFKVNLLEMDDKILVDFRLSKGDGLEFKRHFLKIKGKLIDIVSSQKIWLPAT
Protocol: Example A: Kinase HTRF Biochemical Assay
Chk1 enzyme activity was measured using an HTRF KinEASE assay (Cisbio, catalog no. 62ST1PEC). Full-length human Chk1 protein (GenBank accession number NP_001265.1) was obtained from Carna Biosciences, Inc. (Kobe, Japan, catalog no. 02-117). The enzyme reaction was carried out in assay buffer containing (final concentrations): Chk1 enzyme (0.012 ng/μL), MgCl2 (5 mM) and DTT (1 mM). To determine compound dose response, DMSO stock solutions were serially diluted in a 10-point concentration series in duplicate. Compound solution (50 nL) was added to 384-well assay plates (Greiner, catalog no. 784075). To each well containing compound solution was added assay buffer solution (5 μL). Plates were centrifuged at 1000 rpm for 1 minute, then incubated at room temperature for 10 minutes. The reaction was started by addition of substrate buffer (5 μL/well) containing (final concentrations): STK substrate 1-biotin (120 nM) and ATP (1 mM). Assay plates were centrifuged at 1000 rpm for 1 minute, then incubated at room temperature for 60 minutes. The reaction was stopped by addition of detection buffer (Cisbio, 10 μL) containing (final concentrations): STK antibody-cryptate (0.25 nM) and streptavidin-XL665 (7.5 nM). Plates were centrifuged at 1000 rpm for 1 minute, then incubated at 25° C. for 2 hours. HTRF signal was read on an EnVision multimode plate reader […] in HTRF mode. Data were fit to dose-response curves using XLfit (IDBS, Surrey, UK) or Prism (GraphPad Software, La Jolla, Calif., US) to calculate IC50 values for each compound tested.

Compound | IC50 (p-CHK1 (Ser345)) [µM] | IC50 [1] [µM]
COc1cc(F)c(-c2cc(Nc3cnc(C#N)cn3)n[nH]2)c(O[C@@H]2CC[C@H](N)C2)c1 [Example 1-41, 5-((5-(2-(((1R,3S)-3-aminocyclopentyl)oxy)-6-fluoro-4-methoxyphenyl)-1H-pyrazol-3-yl)amino)pyrazine-2-carbonitrile] | 0.1 to 0.5 | ≤ 0.01
COc1cc(Cl)cc(O[C@H]2CC[C@H](N)CC2)c1-c1cc(Nc2cnc(C#N)cn2)n[nH]1 [Example 1-21, 5-((5-(2-(((1r,4r)-4-aminocyclohexyl)oxy)-4-chloro-6-methoxyphenyl)-1H-pyrazol-3-yl)amino)pyrazine-2-carbonitrile] | 0.05 to 0.1 | ≤ 0.01
COc1cccc(O[C@H]2C[C@H](N)C2)c1-c1cc(Nc2cnc(C#N)cn2)n[nH]1 [Example 1-5, 5-((5-(2-((1r,3r)-3-aminocyclobutoxy)-6-methoxyphenyl)-1H-pyrazol-3-yl)amino)pyrazine-2-carbonitrile] | ≤ 0.05 | ≤ 0.01
COc1cc(F)cc(O[C@H]2CC[C@H](N)CC2)c1-c1cc(Nc2cnc(C#N)cn2)n[nH]1 [Example 2-4, 5-((5-(2-(((lr,4r)-4-aminocyclohexyl)oxy)-4-fluoro-6-methoxyphenyl)-1 H-pyrazol-3-yl)amino)pyrazine-2-carbonitrile] | ≤ 0.05 | ≤ 0.01
N#Cc1cnc(Nc2cc(-c3c(F)cccc3O[C@H]3CC[C@H](N)CC3)[nH]n2)cn1 [Example 1-19, 5-((5-(2-(((1r,4r)-4-aminocyclohexyl)oxy)-6-fluorophenyl)-1H-pyrazol-3-yl)amino)pyrazine-2-carbonitrile] | 0.1 to 0.5 | 0.01 to 0.1
COc1cccc(O[C@H]2CC[C@H]2N)c1-c1cc(Nc2cnc(C#N)cn2)n[nH]1 [Example 3-3, 5-((5-(2-((1S,2R)-2-aminocyclobutoxy)-6-methoxyphenyl)-1H-pyrazol-3-yl)amino)pyrazine-2-carbonitrile] | – | 0.1 to 0.5
N#Cc1cnc(Nc2cc(-c3c(OCC(F)(F)F)cccc3O[C@@H]3CC[C@H](N)C3)[nH]n2)cn1 [Example 1-25, 5-((5-(2-(((1R,3S)-3-aminocyclopentyl)oxy)-6-(2,2,2-trifluoroethoxy)phenyl)-1-pyrazol-3-yl)amino)pyrazine-2-carbonitrile] | – | 0.5 to 1
COc1cccc(O[C@@H]2CCC[C@H](N)C2)c1-c1cc(Nc2cnc(C#N)cn2)n[nH]1 (relative stereo) [Example 1-66] | – | > 1
N#Cc1cnc(Nc2cc(-c3c(OC4CCC4)cccc3O[C@@H]3CC[C@H](N)C3)[nH]n2)cn1 [Example 1-36, 5-((5-(2-(((1R,3S)-3-aminocyclopentyl)oxy)-6-cyclobutoxyphenyl)-1H-pyrazol-3-yl)amino)pyrazine-2-carbonitrile] | – | 0.1 to 0.5
COc1cccc(OC[C@H]2C[C@@H](N)C2)c1-c1cc(Nc2cnc(C#N)cn2)n[nH]1 [Example 1-2, 5-((5-(2-(((1s,3s)-3-aminocyclobutyl)methoxy)-6-methoxyphenyl)-1H-pyrazol-3-yl)amino)pyrazine-2-carbonitrile] | – | > 1

Continued, values first:

IC50 (p-CHK1 (Ser345)) [µM] | IC50 [1] [µM] | Compound
0.1 to 0.5 | ≤ 0.01 | N#Cc1cnc(Nc2cc(-c3c(O[C@@H]4CC[C@@H](N)C4)ccc(F)c3F)[nH]n2)cn1 [Example 3-28, 5-((5-(6-(((1R,3R)-3-aminocyclopentyl)oxy)-2,3-difluorophenyl)-1H-pyrazol-3-yl)amino)pyrazine-2-carbonitrile]
0.05 to 0.1 | 0.01 to 0.1 | Cc1nc(-c2cc(Nc3cnc(C#N)cn3)n[nH]2)c(O[C@@H]2CC[C@H](N)C2)cc1F [Example 3-50, 5-((5-(3-(((1R,3S)-3-aminocyclopentyl)oxy)-5-fluoro-6-methylpyridin-2-yl)-1H-pyrazol-3-yl)amino)pyrazine-2-carbonitrile]
> 1 | 0.1 to 0.5 | CN(C)[C@@H]1CC[C@@H](Oc2cccc(F)c2-c2cc(Nc3cnc(C#N)cn3)n[nH]2)C1 [Example 5-4, 5-((5-(2-(((1R,3R)-3-(dimethylamino)cyclopentyl)oxy)-6-fluorophenyl)-1H-pyrazol-3-yl)amino)pyrazine-2-carbonitrile]
≤ 0.05 | ≤ 0.01 | CN[C@@H]1CC[C@@H](Oc2ccc(C)nc2-c2cc(Nc3cnc(C#N)cn3)n[nH]2)C1 [Example 3-45, 5-((5-(6-methyl-3-(((1R,3R)-3-(methylamino)cyclopentyl)oxy)pyridin-2-yl)-1H-pyrazol-3-yl)amino)pyrazine-2-carbonitrile]
0.1 to 0.5 | ≤ 0.01 | N#Cc1cnc(Nc2cc(-c3c(F)cc(Cl)cc3O[C@@H]3CC[C@@H](N)C3)[nH]n2)cn1 [Example 3-30, 5-((5-(2-(((1R,3R)-3-aminocyclopentyl)oxy)-4-chloro-6-fluoropheny)-1H-pyrazol-3-yl)amino)pyrazine-2-carbonitrile]
≤ 0.05 | ≤ 0.01 | Cc1cc(O[C@@H]2CC[C@H](N)C2)c(-c2cc(Nc3cnc(C#N)cn3)n[nH]2)nc1C [Example 3-48, 5-((5-(3-(((1R,3S)-3-aminocyclopentyl)oxy)-5,6-dimethylpyridin-2-yl)-1H-pyrazol-3-yl)amino)pyrazine-2-carbonitrile]
> 1 | > 1 | Cc1cccc(-c2cc(Nc3cnc(C#N)cn3)n[nH]2)c1O[C@@H]1CC[C@H](N)C1 [Example 3-12, 5-((5-(2-(((1R,3S)-3-aminocyclopentyl)oxy)-3-methylphenyl)-1H-pyrazol-3-yl)amino)pyrazine-2-carbonitrile]
≤ 0.05 | ≤ 0.01 | N#Cc1cnc(Nc2cc(-c3c(F)cccc3O[C@@H]3CCCC[C@H](N)C3)[nH]n2)cn1 [Example 3-35, 5-((5-(2-(((1R,3S)-3-aminocycloheptyl)oxy)-6-fluorophenyl)-1H-pyrazol-3-yl)amino)pyrazine-2-carbonitrile]
– | ≤ 0.01 | COc1cccc(OCC2CC2N)c1-c1cc(Nc2cnc(C#N)cn2)n[nH]1 (centres unmarked) [Example 3-55, 5-((5-(2-((2-aminocyclopropyl)methoxy)-6-methoxyphenyl)-1H-pyrazol-3-yl)amino)pyrazine-2-carbonitrile]
– | 0.01 to 0.1 | Cc1cc(-c2cc(Nc3cnc(C#N)cn3)n[nH]2)c(O[C@@H]2CC[C@H](N)C2)cc1F [Example 3-17, 5-((5-(2-(((1R,3S)-3-aminocyclopentyl)oxy)-4-fluoro-5-methylphenyl)-1H-pyrazol-3-yl)amino)pyrazine-2-carbonitrile]
– | 0.1 to 0.5 | N#Cc1cnc(Nc2cc(-c3c(F)cccc3O[C@@H]3CCC[C@@H]3N)[nH]n2)cn1 [Example 3-39, 5-((5-(2-(((1R,2S)-2-aminocyclopentyl)oxy)-6-fluorophenyl)-1H-pyrazol-3-yl)amino)pyrazine-2-carbonitrile]
– | ≤ 0.01 | N#Cc1cnc(Nc2cc(-c3c(F)cccc3O[C@H]3CCCC[C@@H](N)C3)[nH]n2)cn1 [Example 3-36, 5-((5-(2-(((1S,3R)-3-aminocycloheptyl)oxy)-6-fluorophenyl)-1H-pyrazol-3-yl)amino)pyrazine-2-carbonitrile]

Source: US11707462B2, “Checkpoint kinase 1 (CHK1) inhibitors and uses thereof” (Boundless Bio, Inc., priority 2021, dated 2023)
